Results on eight molecules are retold here after ChEMBL document CHEMBL1201862, “PubChem BioAssay data set” (2004).

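Growth conditions: 96-well plates. Treatment: test compound, 48 hours, 5 concentrations. Analysis: linear interpolation between bracketing concentrations; unreached endpoints set to highest concentration. GI50: concentration for 50% inhibition of growth.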 Calls of active or inactive are those of the source. Cut-off read from the data, not from the text of the source: active = GI50 up to about 1.1 µM and inactive = higher.

Among the test systems are MDA-MB-435; KM12; HCT-15; K562; LOX IMVI; OVCAR-5; NCI-H23; COLO 205; 786-0; UACC-62; SK-MEL-5; RPMI-8226; SK-MEL-28; ACHN; Malme-3M; NCI-H226; HCC 2998; Hs-578T; BT-549.
What all share (assay): NCI anticancer screen, dose series, 48 h

Turning to `COC(=O)c1ccc2c(c1)sc1nc(-c3ccc(OC)cc3)cn12`, the GI50 with MDA-MB-435 is 42.8 µM (inactive); with KM12, 56.1 µM (inactive); with HCT-15, greater than 100 µM; in the assay on K562, 38.2 µM (inactive); with LOX IMVI it was > 100 µM (inactive); in the assay with OVCAR-5 it was > 100 µM (inactive). Moreover, the GI50 in the assay on NCI-H23 was > 100 µM (inactive); in the assay with COLO 205, 31.9 µM (inactive); with 786-0, > 100 µM (inactive); in the assay on UACC-62, > 100 µM (inactive); in the assay on SK-MEL-5 it was 21.1 µM (inactive); in the assay with RPMI-8226, 32.4 µM (inactive). In addition, the GI50 in the assay with SK-MEL-28 was > 100 µM (inactive); with ACHN it was > 100 µM (inactive); in the assay with Malme-3M, > 100 µM (inactive); with NCI-H226, > 100 µM (inactive); in the assay on HCC 2998 it was > 100 µM (inactive); with Hs-578T, 37.3 µM (inactive). In the assay with BT-549, the GI50 was 43.7 µM (inactive).
Take `O=c1[nH]nc(-c2ccccc2)n1-n1cccc1`: the GI50 in the assay with MDA-MB-435 is > 100 µM (inactive); in the assay with KM12 it was > 100 µM (inactive); in the assay on HCT-15 it was greater than 100 µM; with K562, > 100 µM (inactive); in the assay with LOX IMVI it was > 100 µM (inactive); in the assay on OVCAR-5, > 100 µM (inactive). In addition, the GI50 in the assay with COLO 205, with 786-0, with UACC-62, in the assay with SK-MEL-5, with RPMI-8226 and in the assay on SK-MEL-28 was > 100 µM (inactive) each time. Also, the GI50 with ACHN, with Malme-3M, with NCI-H226, in the assay on HCC 2998, in the assay with Hs-578T and with BT-549 was > 100 µM (inactive) throughout.
Regarding `CN(C1=NCCO1)c1cccc2c1CCCC2`, the GI50 is 3.64 µM (inactive) with MDA-MB-435; 6.97 µM (inactive) with KM12; 3.48 µM in the assay with HCT-15; 4.78 µM (inactive) with K562; 2.58 µM (inactive) in the assay on LOX IMVI; 3.9 µM (inactive) in the assay on OVCAR-5. Further, the GI50 in the assay on NCI-H23 was 3.73 µM (inactive); in the assay on COLO 205, 1.89 µM (inactive); in the assay with 786-0, 3.17 µM (inactive); with UACC-62, 3.37 µM (inactive); with SK-MEL-5, 2.11 µM (inactive); in the assay with RPMI-8226 it was 5.93 µM (inactive). For the same molecule, the GI50 in the assay on SK-MEL-28 was 6.01 µM (inactive); in the assay on ACHN, 3.18 µM (inactive); in the assay with Malme-3M, 2.76 µM (inactive); in the assay on NCI-H226, 1.44 µM (inactive); in the assay with HCC 2998 it was 3.79 µM (inactive); in the assay with Hs-578T, 8.15 µM (inactive). Moreover, the GI50 in the assay with BT-549 is 9.53 µM (inactive).
On to `CCOC(=O)Cc1c(C)c2cc(C(=O)c3ccccc3)c(O)cc2oc1=O`, for which the GI50 with MDA-MB-435 is 33 µM (inactive); with HCT-15, 29.4 µM; in the assay on K562, 24.7 µM (inactive); in the assay on LOX IMVI, 30.3 µM (inactive); in the assay on OVCAR-5, 26 µM (inactive); in the assay with NCI-H23, 19.3 µM (inactive). Moreover, the GI50 is 18.5 µM (inactive) in the assay on COLO 205; 39.8 µM (inactive) with 786-0; 35.3 µM (inactive) in the assay on UACC-62; 17.6 µM (inactive) in the assay with SK-MEL-5; 29.3 µM (inactive) with RPMI-8226; 34.2 µM (inactive) in the assay on SK-MEL-28. The GI50 is 29.3 µM (inactive) in the assay on ACHN; 25.4 µM (inactive) in the assay with Malme-3M; 27.3 µM (inactive) in the assay with NCI-H226; 32.6 µM (inactive) with HCC 2998; 26.2 µM (inactive) in the assay with Hs-578T; 17.8 µM (inactive) in the assay with BT-549.
`COC(=O)[C@@H]1C[C@H]2OC(=O)CC[C@]2(C)O[C@H]1[C@H]1O[C@@](C)(O)CCC[C@H]1C`: the GI50 is > 50 µM (inactive) in the assay with MDA-MB-435; > 50 µM (inactive) with KM12; greater than 50 µM with HCT-15; > 50 µM (inactive) in the assay on K562; 6.07 µM (inactive) in the assay with LOX IMVI; > 50 µM (inactive) in the assay with OVCAR-5. For the same molecule, the GI50 in the assay on NCI-H23, with COLO 205, in the assay on 786-0, in the assay with UACC-62, with SK-MEL-5 and in the assay with RPMI-8226 was > 50 µM (inactive) throughout. Also, the GI50 in the assay on SK-MEL-28, in the assay on ACHN, in the assay on Malme-3M, with NCI-H226, in the assay on HCC 2998 and with Hs-578T was > 50 µM (inactive) in each case. Moreover, the GI50 with BT-549 was > 50 µM (inactive).
For `CC1(c2ccccc2)CCN(C2CC2)CO1` (stereo not given), the GI50 in the assay on MDA-MB-435 was 49.9 µM (inactive); in the assay with KM12, 14.9 µM (inactive); in the assay on HCT-15, 16.5 µM; in the assay on K562, 15.3 µM (inactive); with LOX IMVI, 18 µM (inactive); in the assay on OVCAR-5 it was 17.5 µM (inactive). For the same molecule, the GI50 is 33 µM (inactive) in the assay on NCI-H23; 21.6 µM (inactive) in the assay on COLO 205; 11.4 µM (inactive) in the assay on 786-0; 18.1 µM (inactive) in the assay on UACC-62; > 100 µM (inactive) in the assay with SK-MEL-5; 19.8 µM (inactive) in the assay with RPMI-8226. The GI50 is 19.7 µM (inactive) with SK-MEL-28; 17.9 µM (inactive) in the assay on ACHN; 19.9 µM (inactive) in the assay with Malme-3M; > 100 µM (inactive) in the assay with NCI-H226; 17.1 µM (inactive) with HCC 2998; 19.4 µM (inactive) in the assay on Hs-578T. In addition, the GI50 in the assay on BT-549 is 18.3 µM (inactive).
As for `CC(C)(C)C1=CC(=C2C=Cc3cc(O)ccc3O2)C=C(C(C)(C)C)C1=O`, the GI50 in the assay with MDA-MB-435 was 1.5 µM (inactive); in the assay on KM12, 1.58 µM (inactive); with HCT-15, 1.79 µM; in the assay with K562, 2.13 µM (inactive); in the assay on LOX IMVI, 1.56 µM (inactive); in the assay on OVCAR-5 it was 2.13 µM (inactive). In addition, the GI50 in the assay with NCI-H23 is 1.79 µM (inactive); with COLO 205, 1.72 µM (inactive); in the assay on 786-0, 1.36 µM (inactive); with UACC-62, 1.38 µM (inactive); in the assay with SK-MEL-5 it was 1.58 µM (inactive); in the assay on RPMI-8226, 0.782 µM (active). For the same molecule, the GI50 in the assay with SK-MEL-28 is 1.73 µM (inactive); in the assay with ACHN it was 1.69 µM (inactive); in the assay with Malme-3M it was 1.59 µM (inactive); with NCI-H226 it was 1.85 µM (inactive); with HCC 2998 it was 1.26 µM (inactive); with Hs-578T, 2.27 µM (inactive). Besides, in the assay on BT-549, the GI50 is 1.79 µM (inactive).
`CCCCCCCCCCCCCC/C(C(=O)O)=C(\C)C(=O)O`: the GI50 in the assay with MDA-MB-435 was > 100 µM (inactive); in the assay on KM12, > 100 µM (inactive); in the assay on HCT-15, greater than 100 µM; with K562, > 100 µM (inactive); in the assay on LOX IMVI, > 100 µM (inactive); with OVCAR-5, > 100 µM (inactive). The GI50 in the assay with NCI-H23 was > 100 µM (inactive); with COLO 205, > 100 µM (inactive); in the assay on 786-0, > 100 µM (inactive); in the assay on UACC-62, > 100 µM (inactive); in the assay with SK-MEL-5, > 100 µM (inactive); in the assay with RPMI-8226, 40.4 µM (inactive). In addition, the GI50 in the assay with SK-MEL-28, with ACHN, with Malme-3M, in the assay on NCI-H226, in the assay with HCC 2998 and with Hs-578T was > 100 µM (inactive) in each case. The GI50 with BT-549 was > 100 µM (inactive).
